# Marks after values point to notes of the source that are not given here.
# Columns and labels:
# [1] = system: Cobb500 fast-feathering male broilers; test: Grow out of offspring, performance till slaughter age (Example 3); format: in vivo, chicken
# [2] = system: sows (PIC) and their piglets; test: Litter performance (Example 10); format: in vivo, pig; conditions: for Mortality: piglets until weaning
# Procedure: Testing was performed on sows (primiparous and multiparous) of the same type of crossing (PIC). The trial comprised 52 sows in a system of continuous farrowing. Each group was consist of 13 animals. The trial ran from day 1 of pregnancy to remating in the next cycle.
# Each group was fed with complete diets for pregnant sows (0-90 d) and for lactation sows (90 d of gestation-weaning) with different inclusion of vitamin E and tested product (see TABLE 43A) and lactation diets (see TABLE 43B)
# (§1) The performance following criteria were monitored during the trial: (i) Sows response criteria (actual parity, farrowing rate, culled sows—number and reasons, wean-to-mating interval, farrowing rate in the next cycle); (ii) litter response criteria (number of piglets, total, alive, stillborn, mummies; weight of piglets and litters; survival). The following biochemical (blood) criteria were monitored during the trial for the sows (mating, farrowing and weaning), piglets 21st day: (i) glutathione peroxidase (GPx) activity; (ii) superoxide dismutase (SOD) activity; (iii) total antioxidant status (TAS); (iv) vitamin E content; (v) vitamin A content.
# sows and piglets = test: Superoxide dismutase (SOD) activity in serum of sows and piglets (Example 10); format: in vivo, pig; conditions: for Activity of superoxide dismutase (SOD) in serum of piglets: piglets at 21 days
# Text: as §1
# To determine the oxidative status, the blood samples were collected from sows and piglets into tubes with lithium anticoagulant—received whole blood for analysis. At the same time blood samples were taken for blood clot. They were centrifuged (1500 rpm, 15 Temp. 4° C.) and obtained serum was pipetted into separate tubes.
# In studies of oxidative status of sows and piglets were used suitable to each of the indicators, the reagent kits from Sigma-Aldrich. Determination was made in accordance with the descriptions of the rules and procedures specified by the manufacturer.
# The content of the TAS (total antioxidant status) were determined using the Antioxidant assay kit (Cat. No CS0790), the activity of SOD (superoxide dismutase) was determined using SOD determination kit 19160, the activity of GPx (glutathione Peroxide assai Cellular Activity Kit) Cat. No CGP1. The content of vitamins A and E by McMurray and Blanchflower 1979 (Journal of Chromatography 178, 525-531.). TAS
# Serum samples (20 ul) in duplicate were incubated at 37° C. for 20 minutes with the working solution WST (tetrazolium sodium salt, 2-(4-lodophenyl)-3 (4-nitrophenyl0-5-(2,4-disulfophenyl) 2H-tetrazolium, monosodium salt) (200 pl) and the enzyme working solution (20 pl). Simultaneously sample blanks were performed (two reagents, and blank for each sample) and a calibration curve based on serial dilutions of SOD in a range of 200 to 0,001 U/ml. Absorbance of the blank, standards and test samples read on a spectrophotometer at a wavelength of 450 nm. WST produces a water-soluble formazan dye upon reduction with a superoxide anion. The rate of the reduction with O2 are linearly related to the xanthine oxidase (XO) activity. The SOD activity is measured as the degree of blocking the formation of the formazan dye.
# [3] = 1st day, Group 2: vitamin E 50/75 mg/kg sow diet
# [4] = 1st day, Group 3: vitamin E 100/150 mg/kg sow diet
# [5] = Weaning, Group 2: vitamin E 50/75 mg/kg sow diet
# [6] = Weaning, Group 3: vitamin E 100/150 mg/kg sow diet
# [7] = Group 2: vitamin E 50/75 mg/kg sow diet
# [8] = Group 3: vitamin E 100/150 mg/kg sow diet
compound,measurement,setting,value
"Cc1c(C)c2c(c(C)c1O)CCC(C)(CCCC(C)CCCC(C)CCCC(C)C)O2 (racemic) [Vitamin E, DL-α-tocopherol]",start weight of the chickens,"[1]; after placement in cages, day 0",40.9 g
same,F:G corrected for BW,"[1]; corrected to 2,181 gram body weight at 35 days of age",1.627
same,ADFI 0-3 d,[1]; offspring,10.1 g
same,ADFI 0-14 d,[1]; offspring,37.1 g
same,ADFI 0-28 d,[1]; offspring,82.1 g
same,ADFI 0-35 d,[1]; offspring,101.7 g
same,ADFI 3-14 d,[1]; offspring,44.5 g
same,ADFI 14-35,[1]; offspring,144.8 g
same,ADFI 14-28 d,[1]; offspring,127.0 g
same,ADFI 28-35 d,[1]; offspring,180.3 g
same,ADG 0-3 d,[1]; offspring,9.5 g
same,ADG 0-14 d,[1]; offspring,29.3 g
same,ADG 0-28 d,[1]; offspring,54.4 g
same,ADG 0-35 d,[1]; offspring,62.2 g
same,ADG 3-14 d,[1]; offspring,34.7 g
same,ADG 14-35,[1]; offspring,84.2 g
same,ADG 14-28 d,[1]; offspring,79.6 g
same,ADG 28-35 d,[1]; offspring,93.6 g
same,BW 0 d,[1]; offspring,40.9 g
same,BW 3 d,[1]; offspring,69.4 g
same,BW 14 d,[1]; offspring,451 g
same,BW 35 d,[1]; offspring,2219 g
same,F:G 0-14 d,[1]; offspring,1.268
same,F:G 0-28 d,[1]; offspring,1.509
same,F:G 0-35 d,[1]; offspring,1.635
same,F:G 3-14 d,[1]; offspring,1.283
same,F:G 14-28 d,[1]; offspring,1.598
same,F:G 14-35 d,[1]; offspring,1.720
same,F:G 28-35 d,[1]; offspring,1.929
same,EPI excl,"[1]; offspring, 35 d",388
same,"EPI, excl mortality","[1]; offspring, 35 d",369
same,Mortality,"[1]; offspring, breeder diet 80 ppm vitamin E or 40 ppm vitamin E+40 ppm PROVIOX 50",4.6%
same,F:G 0-3 d,"[1]; offspring, kg feed intake:kg gain",1.088
same,Litter weight,[2]; [3],18.50^a kg
same,"Number of piglets per litter, Born alive",[2]; [3],12.82
same,"Number of piglets per litter, Mummies",[2]; [3],0.18
same,"Number of piglets per litter, Stillborn",[2]; [3],1.36
same,"Number of piglets per litter, Weak",[2]; [3],0.36
same,Piglet weight,[2]; [3],1.44 kg
same,Litter weight,[2]; [4],19.07^a kg
same,"Number of piglets per litter, Born alive",[2]; [4],13.18
same,"Number of piglets per litter, Mummies",[2]; [4],0.20
same,"Number of piglets per litter, Stillborn",[2]; [4],1.09
same,"Number of piglets per litter, Weak",[2]; [4],0.40
same,Piglet weight,[2]; [4],1.45 kg
same,Litter weight,[2]; [5],83.96^b kg
same,Piglet weight,[2]; [5],7.16 kg
same,Weaning Number of piglets per litter,[2]; [5],11.73
same,Litter weight,[2]; [6],84.33^b kg
same,Piglet weight,[2]; [6],7.31 kg
same,Weaning Number of piglets per litter,[2]; [6],11.82
same,Mortality,[2]; [7],8.37%
same,Mortality,[2]; [8],10.64%
same,Activity of superoxide dismutase (SOD) in serum of sows,"sows and piglets; Breeding, Group 2: vitamin E 50/75 mg/kg diet",71.43 U/ml
same,Activity of superoxide dismutase (SOD) in serum of sows,"sows and piglets; Breeding, Group 3: vitamin E 100/150 mg/kg diet",73.28 U/ml
same,Activity of superoxide dismutase (SOD) in serum of sows,"sows and piglets; Farrowing, Group 2: vitamin E 50/75 mg/kg diet",77.14^B U/ml
same,Activity of superoxide dismutase (SOD) in serum of sows,"sows and piglets; Farrowing, Group 3: vitamin E 100/150 mg/kg diet",79.60^AB U/ml
same,Activity of superoxide dismutase (SOD) in serum of sows,"sows and piglets; Weaning, Group 2: vitamin E 50/75 mg/kg diet",79.50^C U/ml
same,Activity of superoxide dismutase (SOD) in serum of sows,"sows and piglets; Weaning, Group 3: vitamin E 100/150 mg/kg diet",90.93^B U/ml
same,Activity of superoxide dismutase (SOD) in serum of piglets,sows and piglets; [7],100.61^B U/ml
same,Activity of superoxide dismutase (SOD) in serum of piglets,sows and piglets; [8],129.54^Ab U/ml

# Source: patent US20170119020A1, “METHOD OF FEEDING AN ANIMAL” (CARGILL, INCORPORATED, priority 2014, published 2017)
